In patent publication US9351929B2, “Antibiotic formulations, unit doses, kits, and methods” (Bayer Intellectual Property GMBH, priority 2005, dated 2016):
Counter-ions that a name gives are not always drawn.

Key:
[1] = Aerosol particle size distribution by laser diffraction; assay type: physicochemical; settings: solutions in WFI 60-140 mg/ml, fill 2-4 ml
Method: Droplet size distributions for aerosolized drug and placebo solutions were measured using the Sympatec HELOS laser diffraction spectrometer. In preparation for a run, the nebulizer was connected to the compressed air line, the flow turned on and the pressure regulator set to a driving pressure to generate a flow rate of 8 LPM through the nebulizer. The flow was then turned off by closing the flow shut-off valve. Next, the nebulizer was connected to a “T” piece with one port plugged, and the other port coupled to a mouthpiece. The nebulizer was then filled with drug solution, and mounted so that nebulizer mouthpiece was aligned parallel to the nozzle of the Rodos dry powder disperser apparatus already installed in the spectrometer. The laser diffraction system was setup to automatically trigger when it sensed the presence of the aerosol generated by the nebulizer. Measurements were initiated by opening the shut-off valve to pressurize the nebulizer and generate the aerosol. A total of 6 particle size distribution scans were taken for each nebulizer run, and then averaged to provide representative size distribution results.

CD rats = assay: 14-consecutive day nose-only inhalation toxicity and recovery; assay type: in vivo, rat
Method: The solution was used to generate aerosolized vancomycin for all vancomycin exposure groups.
Nose-only exposures were conducted in a “flow-past” cylindrical inhalation chamber placed inside a steel-framed Plexiglas secondary containment box. The chamber contained 48 animal ports, each compatible with a single nose-only exposure tube, aerosol concentration sampling device (e.g., filter), or oxygen monitor.
The total air flow through the exposure system was balanced to achieve individual animal port flows of ˜500 mL/min (port flow approximated based on total chamber flow). Measured flows included sample flow rate, nebulizer flow rate, dilution flow rate (chamber make-up air), and chamber exhaust flow.
Vancomycin solution was aerosolized with two Aerotech II nebulizers operated at 20 psi driving pressure. The target aerosol Vancomycin concentration for all exposure levels was ˜1.0 mg/L.
Aerosolized vancomycin was administered to 3 groups of male and female CD rats (available from Charles River Laboratories, Kingston, N.Y.) for durations of 30 min (Low), 90 min (Mid), and 180 min (High). A control group was exposed for 180 min to aerosols generated from a normal saline solution. Groups of rats from the Control and High level 14-day exposures were also studied following a 14-day recovery period. Endpoints included clinical observations, body weights, clinical pathology (hematology, clinical chemistry), urinalyses, organ weights, and histopathology.

beagle dogs = assay: 14-consecutive day face mask inhalation toxicity and recovery; assay type: in vivo, dog
Method: Within 2 hours prior to usage, a vancomycin nebulizer solution having a concentration of 120 mg/ml was formed by dissolving vancomycin hydrochloride (available from Alpharma, Copenhagen, Denmark) in sterile water for injection USP (available from B. Braun Medical Inc., Bethlehem, Pa.). The solution was used to generate aerosolized vancomycin for all vancomycin exposure groups.
The exposure system consisted of a single, cylindrical, plexiglass inhalation chamber (volume of ˜23.7 L, 14.61-cm radius, 35.56-cm height). The chamber was supplied with two Aerotech II nebulizers operated at ˜40 psi. Nebulized test article and nebulizer air supply was diluted with ˜10 L/min HEPA-filtered dilution air. The flow through the system was ˜36 L/min.
The aerosolized vancomycin was administered via a face mask to 3 groups of male and female beagle dogs for durations of 15 min (Low), 30 min (Mid), and 60 min (High). A control group was exposed for 60 min to aerosols generated from normal saline solution, i.e., 0.9% sodium chloride injection USP (available from B. Braun Medical Inc.).
Groups of dogs from the Control and High level 14-day exposures were also studied following a 14-day recovery period. Endpoints for all groups of dogs included physical examinations, clinical observations, body weights, ophthalmology, cardiovascular EKG, clinical pathology (hematology, clinical chemistry), urinalyses, organ weights, histopathology, and toxicokinetics.

For `CN[C@H](CC(C)C)C(=O)N[C@H]1C(=O)N[C@@H](CC(N)=O)C(=O)N[C@H]2C(=O)N[C@H]3C(=O)N[C@H](C(=O)N[C@H](C(=O)O)c4cc(O)cc(O)c4-c4cc3ccc4O)[C@H](O)c3ccc(c(Cl)c3)Oc3cc2cc(c3O[C@@H]2O[C@H](CO)[C@@H](O)[C@H](O)[C@H]2O[C@H]2C[C@](C)(N)[C@H](O)[C@H](C)O2)Oc2ccc(cc2Cl)[C@H]1O` [Vancomycin HCl, vancomycin hydrochloride], the “volume weighted median size of aerosol” value [1] was 2-3 μm, the “mass median aerodynamic diameter of exposure aerosol” value (CD rats; 120 mg/ml solution, Aerotech II nebulizers, 20 psi) was 2.0-2.6 μm and the “no observed effect level” value (CD rats; rat, 14-day inhalation) was “not established”. For the same compound, the “serum indicators of kidney function or urinalysis” value (CD rats; rat, 14-day inhalation) was “No vancomycin related changes”, the lung weight increase (CD rats; rat, High exposure level (180 min), 14 days) was ~19 % of control and the “histopathologic findings after recovery” value (CD rats; rat, High level, 14 days of recovery) was “substantial diminution of these findings”. The lung weight increase (CD rats; rat, Low exposure level (30 min), 14 days) was “approximately 8 % of control”, the “neutrophils (hematology)” value (CD rats; rat, Mid and High exposure levels) was “statistically significant increase” and the lung weight increase (CD rats; rat, Mid exposure level (90 min), 14 days) was ~20 % of control. The “exposure related histopathologic findings” value (CD rats; rat, end of 14-day exposure) was “limited to the respiratory tract”, the tolerability (CD rats; rat, inhalation 30, 90, 180 min/day, 14 days) was “well-tolerated by all groups of rats” and the body weight (CD rats; rat, inhalation 14 days) was “no vancomycin treatment related effects”. For the same compound, the clinical observations (CD rats; rat, inhalation 14 days) was “no vancomycin related effects”, the survival (CD rats; rat, inhalation 14 days, all groups) was “All rats survived to scheduled necropsy” and the “mass median aerodynamic diameter of exposure aerosol” value (beagle dogs; 120 mg/ml solution, Aerotech II nebulizers, ~40 psi) was 1.9-2.6 μm. The “physical examinations, clinical observations, ophthalmology, ECG, hematology, clinical chemistry, urinalyses, gross necropsy, organ weights” value (beagle dogs; dog, 14-day inhalation) was “no vancomycin related effects”, the survival (beagle dogs; dog, 14 days, all groups) was “All dogs survived to scheduled necropsy” and the “recovery of histopathological effects” value (beagle dogs; dog, High level, 14-day recovery) was “complete after 14 days”. For the same compound, the histopathology (beagle dogs; dog, end of 14-day exposure) was “limited to microscopic findings in the lung” and the tolerability (beagle dogs; dog, face mask 15, 30, 60 min/day, 14 days) was “well-tolerated by all groups of dogs”.
